The conditions of series [1]: conventional chronic regimen; cited from earlier work.
The nature of series [2]: Plasma pharmacokinetics of vincristine in mice. Conditions: for concentration at 1 h / concentration at 4 h / concentration at 0.5 h / concentration at 0.25 h / AUC(0-t) / Cmax / concentration at 2 h: mouse, in vivo; for AUC(0-t) / Cmax: male; for AUC(0-t): AUC0-4h. As for the experimental part:
were collected at the final time point. […]
specimens were stored at -80°C until further processing. […]
stainless steel bead (Qiagen) and processed for 4 min at 40 Hz. Finally, the beads were removed, and the homogenized samples were stored at -80°C until analysis by LC-MS/MS.
Pharmacokinetic parameters were calculated by non -compartmental analysis using Phoenix WinNonlin version 8.0 (Certara). Peak plasma concentration (C max) was determined by visual inspection of the data from the concentration-time curves. The linear trapezoidal rule was used to obtain the area under the plasma concentration-time curve (AUC), and drug levels in tissues were corrected for […]
Determination of drug levels.
Quantiva triple quadrupole mass spectrometer from Thermo Fisher Scientific was used for LC-MS/MS […]
column was maintained at 50°C. […]
quantification was 5 ng/mL.
450 °C. […] Precursor molecular ions and […]
dose of 4 mg/kg. […] The sample
Morphologic and morphometric evaluation. […]
for light microscopy and morphometric analysis.

For series [3], the target named is hOATP1A2 (Homo sapiens, UniProt P46721). The experiment in a line: Substrate uptake in HEK293 cells overexpressing hOATP1A2. Conditions: HEK293 OATP1A2. An excerpt:
transfected with transporters of interest, including hOAT1, hOAT3, hOAT4, hOATP1A2, hOATP3A1, hOATP4A1, hOATP5A1, hOATP1C1, hOATP1B1, hOATP1B3, hOATP2B1, hOCT1, hOCT2, hOCTN1, hOCTN2, hASBT, hNTCP, hNPT1, hMATE1, hOSTα/β, hPEPT1, hPEPT2, rOatp1a1, rOatp1a4, rOatp1a5, rOatp1b2, rNtcp, rAsbt, rOat1, and rOct1. Cells were transfected with expression plasmid or vector control lacking any insert using Lipofectin reagent (Invitrogen). Sixteen hours thereafter, cells were washed with transport media (OPTIMEM, Invitrogen) and treated with radiolabeled drug. At various time intervals, cells were washed three times with ice-cold PBS and then lysed with 1% sodium dodecyl sulfate. The cellular radioactivity was quantified by liquid scintillation counting as described above. Similar analyses were performed in HEK293 cells transfected with hOATP1A2, hOATP1C1, mMATE1, and hMATE1, with cells seeded in poly lysine pre-coated 12-well plates. For hOATP1A2 and hOATP1C1, transient transfections were performed with either an empty vector, OATP1A2, or OATP1C1 using Lipofectamine 2000 according to the manufacturers protocol (Invitrogen). At 48 h post transfection, […]
Samples were analyzed using real-time quantitative PCR and Taqman Probes (Applied Biosystems). The relative gene expression was determined using the ΔΔCt method, and normalized to the mouse or human housekeeping gene, GAPDH. […]

The subject of series [4] is OATP1B3 protein variants. The experiment in a line: Vincristine transport by OATP1B3 single-nucleotide variants. In kind it is in vitro ADME, human. Conditions: single-nucleotide substitutions. As for the experimental part:
Figure S2. […] (A) Single […]
nucleotide polymorphisms (SNPs) activity percentage of OATP1B3 over-expressed cell after treated […]
Statistical analysis was performed using one-way ANOVA with Dunnett’s […]
(B) Schematic overview of […]
week (cumulative dose of 4 mg/kg). Von-Frey tests were performed on day -1, 9, 16, 18, and 23. Thermal hyperalgesia (Hargreaves test) and nerve conduction studies of the sciatic and caudal nerve were measured on days -1 and 23. Tissue samples for morphologic evaluation were obtained on day 24. (C) […]
and OATP1B2- deficient groups.
Normalized mechanical allodynia (E) was expressed as a percentage change relative to baseline values (n = 6-8 per group). Statistical

The mark [5] stands for this setting: DBA/1LacJ, ip, 1 mg/kg, Plasma concentration of vincristine.
[6] abbreviates: ip, 1 mg/kg, Plasma concentration of vincristine.

A value given as a limit tells only on which side of the number the result lay.

hOATP1A2, sequence (P46721 whole entry): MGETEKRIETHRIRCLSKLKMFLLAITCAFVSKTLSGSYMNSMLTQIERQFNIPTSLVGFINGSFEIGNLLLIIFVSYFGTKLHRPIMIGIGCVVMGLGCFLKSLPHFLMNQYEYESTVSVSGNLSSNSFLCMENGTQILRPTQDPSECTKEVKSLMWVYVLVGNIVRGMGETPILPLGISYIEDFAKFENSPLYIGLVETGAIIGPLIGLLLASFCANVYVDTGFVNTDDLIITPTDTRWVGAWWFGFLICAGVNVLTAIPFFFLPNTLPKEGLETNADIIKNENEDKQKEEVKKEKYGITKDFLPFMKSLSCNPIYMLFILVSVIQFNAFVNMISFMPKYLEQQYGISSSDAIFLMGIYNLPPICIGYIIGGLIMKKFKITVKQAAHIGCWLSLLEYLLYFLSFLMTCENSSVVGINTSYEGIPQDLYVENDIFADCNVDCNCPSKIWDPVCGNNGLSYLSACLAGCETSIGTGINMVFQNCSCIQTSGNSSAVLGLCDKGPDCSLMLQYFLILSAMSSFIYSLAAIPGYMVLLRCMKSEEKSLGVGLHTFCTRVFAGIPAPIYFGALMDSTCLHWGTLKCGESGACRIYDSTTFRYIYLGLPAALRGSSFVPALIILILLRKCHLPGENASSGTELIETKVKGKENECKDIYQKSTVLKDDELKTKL

Take `Cc1cn(-c2cc(NC(=O)c3ccc(C)c(Nc4nccc(-c5cccnc5)n4)c3)cc(C(F)(F)F)c2)cn1` [Nilotinib, nilotinib]: in series [1], the “Median time from start of therapy to onset of QT events” value was greater than 14 months and the “Range of time from start of therapy to onset of QT events” value is 2–68 months.

What is called AUC(0-t) is exposure summed from dosing to a finite time, without extrapolation to infinity. Higher therefore signals more exposure. By Cmax is commonly meant the peak of the concentration-time curve. Take `CC[C@]1(O)C[C@H]2CN(CCc3c([nH]c4ccccc34)[C@@](C(=O)OC)(c3cc4c(cc3OC)N(C=O)[C@H]3[C@@](O)(C(=O)OC)[C@H](OC(C)=O)[C@]5(CC)C=CCN6CC[C@]43[C@@H]65)C2)C1` [Vincristine, vincristine]: the concentration at 1 h in series [2] (DBA/1LacJ, 1 mg/kg, Plasma concentration of vincristine, OATP1B2(-/-) + Vehicle, vincristine 1 mg/kg, 1 h) was determined as 88.4 ng/mL; in series [2] (DBA/1LacJ, Plasma concentration of vincristine, OATP1B2(-/-) + Nilotinib (100 mg/kg pretreatment), vincristine 1 mg/kg, 1 h) it was 108 ng/mL; in series [2] (setting [5]), 315 ng/mL; in series [2] (1 mg/kg, Plasma concentration of Vincristine (ng/mL), OATP1A/1B(-/-) mice, 1 h), 195 ng/mL; in series [2] (1 mg/kg, Plasma concentration of vincristine, Wild-type + Vehicle, vincristine 1 mg/kg, 1 h), 116 ng/mL; in series [2] (Plasma concentration of vincristine, Wild-type + Nilotinib (100 mg/kg pretreatment), vincristine 1 mg/kg, 1 h) it was 104 ng/mL. In series [2] (setting [6]), this compound gave a concentration at 1 h of 273 ng/mL. In addition, the concentration at 4 h in series [2] (DBA/1LacJ, 1 mg/kg, Plasma concentration of vincristine, OATP1B2(-/-) + Vehicle, vincristine 1 mg/kg, 4 h) stood at 65.5 ng/mL; in series [2] (setting [5]) it was 90.9 ng/mL; in series [2] (setting [6]), 114 ng/mL; in series [2] (ip, 1 mg/kg, Plasma concentration of vincristine, Wild-type mice, 1 mg/kg i.p., 4 h), 102 ng/mL. Further, the concentration at 0.5 h in series [2] (DBA/1LacJ, Plasma concentration of vincristine, OATP1B2(-/-) + Nilotinib (100 mg/kg pretreatment), vincristine 1 mg/kg, 0.5 h) amounted to 225 ng/mL; in series [2] (setting [5]), 599 ng/mL; in series [2] (Plasma concentration of vincristine, Wild-type + Nilotinib (100 mg/kg pretreatment), vincristine 1 mg/kg, 0.5 h), 124 ng/mL; in series [2] (setting [6]) it was 376 ng/mL. For the same compound, the figures for the concentration at 0.25 h in series [2] (setting [5]) and in series [2] (setting [6]) were 707 ng/mL and 735 ng/mL, respectively. For the same compound, in series [2] (Wild-type mice, 2 h), the “Plasma concentration of Vincristine” value stood at 104.1 ng/mL. In addition, the AUC(0-t) in series [2] (DBA/1LacJ, ip, 1 mg/kg) is 1290 ± 49.8 ng·h/mL; in series [2] (ip, 1 mg/kg), 1060 ± 36.2 ng·h/mL. Also, the Cmax in series [2] (DBA/1LacJ, ip, 1 mg/kg) stood at 1130 ± 148 ng/mL; in series [2] (ip, 1 mg/kg) it was 1190 ± 113 ng/mL. Moreover, the concentration at 2 h in series [2] (1 mg/kg, Plasma concentration of Vincristine (ng/mL), OATP1A/1B(-/-) mice, 2 h) worked out at 89.9 ng/mL; in series [2] (1 mg/kg, Plasma concentration of Vincristine (ng/mL), Wild-type mice, 2 h), 112 ng/mL. Moreover, the “Contribution of transporter to cellular uptake of vincristine” value in series [3] is on record as “do not appreciably contribute to the cellular uptake of vincristine”. The “Transport by OATP1B3 protein variants” value in series [4] is listed as “impaired ability to transport vincristine”.

The record behind these values is article PMC10443802, “Targeting a xenobiotic transporter to ameliorate vincristine-induced sensory neuropathy” (JCI Insight, 2023).
